Measurements: the supplement of paper PMC10307832

Tests used:
Test in all cases: relative viability (nuclei count vs DMSO), 5 days (fraction); higher = more cells survive
[1] = compound: C1CC1C(=O)NC2=NNC3=C2C=CC(=C3)C4=CC(=CC=C4)C(=O)NC5CC5 [XMD13-2] + CS(=O)(=O)CCNCc1ccc(-c2ccc3ncnc(Nc4ccc(OCc5cccc(F)c5)c(Cl)c4)c3c2)o1 [Lapatinib] (partner 2 µM)
Procedure, shortened: (§1)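 Lung cancer cell lines were pin-tool dosed in 1536-well plates on the day after seeding, with either a lone drug or a fixed anchor-drug dose plus five library-drug doses (not always all listed) in √10 steps. Nuclei were counted on 4× images after 5 days. Relative viability is the ratio of treated-well to vehicle-well nuclei counts, with each value a median of duplicate plates.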

[2] = compound: Cc1nc(Nc2ncc(C(=O)Nc3c(C)cccc3Cl)s2)cc(N2CCN(CCO)CC2)n1 [Dasatinib] + N=C(N)NC(=N)NCCc1ccccc1 [Phenformin] (partner 250 µM)
Procedure, shortened: as §1

[3] = compound: C1CC1C(=O)NC2=NNC3=C2C=CC(=C3)C4=CC(=CC=C4)C(=O)NC5CC5 [XMD13-2] + O=C(c1cc(Cc2n[nH]c(=O)c3ccccc23)ccc1F)N1CCN(C(=O)C2CC2)CC1 [Olaparib] (partner 8 µM)
Procedure, shortened: as §1

[4] = compound: Cc1ccc(C(=O)Nc2cccc(C(F)(F)F)c2)cc1Nc1cncc(C(N)=O)c1 [ALW-II-49-7] + CS(=O)(=O)CCNCc1ccc(-c2ccc3ncnc(Nc4ccc(OCc5cccc(F)c5)c(Cl)c4)c3c2)o1 [Lapatinib] (partner 2 µM)
Procedure, shortened: as §1

Cell Line NCI-H2347 has a relative viability ([1]; first compound 0.05 µM) of 0.987, a relative viability ([1]; first compound 0.1581 µM) of 0.93 and a relative viability ([1]; first compound 0.5 µM) of 0.912. The relative viability ([1]; first compound 1.581 µM) was 1.04, the relative viability ([1]; first compound 5 µM) was 0.973 and the relative viability ([2]; first compound 0.005 µM) was 0.278. The relative viability ([2]; first compound 0.01581 µM) was 0.209, the relative viability ([2]; first compound 0.05 µM) was 0.22 and the relative viability ([2]; first compound 0.1581 µM) was 0.178. It also gave a relative viability ([2]; first compound 0.5 µM) of 0.212, a relative viability ([3]; first compound 0.05 µM) of 0.608 and a relative viability ([3]; first compound 0.1581 µM) of 0.538. It also gave a relative viability ([3]; first compound 0.5 µM) of 0.598, a relative viability ([3]; first compound 1.581 µM) of 0.532 and a relative viability ([3]; first compound 5 µM) of 0.601. It also gave a relative viability ([4]; first compound 0.08 µM) of 1.11, a relative viability ([4]; first compound 0.253 µM) of 0.958 and a relative viability ([4]; first compound 0.8 µM) of 1.11. The relative viability ([4]; first compound 2.53 µM) was 0.85 and the relative viability ([4]; first compound 8 µM) was 0.8.
With LOU-NH91 the relative viability ([1]; first compound 0.05 µM) was 0.809, the relative viability ([1]; first compound 0.1581 µM) was 0.758 and the relative viability ([1]; first compound 0.5 µM) was 0.725. The relative viability ([1]; first compound 1.581 µM) was 0.713, the relative viability ([1]; first compound 5 µM) was 0.746 and the relative viability ([2]; first compound 0.005 µM) was 0.734. The relative viability ([2]; first compound 0.01581 µM) was 0.678, the relative viability ([2]; first compound 0.05 µM) was 0.566 and the relative viability ([2]; first compound 0.1581 µM) was 0.489. It also gave a relative viability ([2]; first compound 0.5 µM) of 0.288, a relative viability ([3]; first compound 0.05 µM) of 0.976 and a relative viability ([3]; first compound 0.1581 µM) of 0.958. It also gave a relative viability ([3]; first compound 0.5 µM) of 0.97, a relative viability ([3]; first compound 1.581 µM) of 0.869 and a relative viability ([3]; first compound 5 µM) of 0.944. It also gave a relative viability ([4]; first compound 0.08 µM) of 0.738, a relative viability ([4]; first compound 0.253 µM) of 0.809 and a relative viability ([4]; first compound 0.8 µM) of 0.742. For the same cell line, the relative viability ([4]; first compound 2.53 µM) was 0.589 and the relative viability ([4]; first compound 8 µM) was 0.699.
Work on NCI-H2228 yielded a relative viability ([1]; first compound 0.05 µM) of 1.42, a relative viability ([1]; first compound 0.1581 µM) of 1.19 and a relative viability ([1]; first compound 0.5 µM) of 1.05. For the same cell line, the relative viability ([1]; first compound 1.581 µM) was 1.23, the relative viability ([1]; first compound 5 µM) was 0.426 and the relative viability ([2]; first compound 0.005 µM) was 0.354. It also gave a relative viability ([2]; first compound 0.01581 µM) of 0.298, a relative viability ([2]; first compound 0.05 µM) of 0.28 and a relative viability ([2]; first compound 0.1581 µM) of 0.242. The relative viability ([2]; first compound 0.5 µM) was 0.218, the relative viability ([3]; first compound 0.05 µM) was 0.834 and the relative viability ([3]; first compound 0.1581 µM) was 0.517. The relative viability ([3]; first compound 0.5 µM) was 0.623, the relative viability ([3]; first compound 1.581 µM) was 0.554 and the relative viability ([3]; first compound 5 µM) was 0.747. For the same cell line, the relative viability ([4]; first compound 0.08 µM) was 0.996, the relative viability ([4]; first compound 0.253 µM) was 0.595 and the relative viability ([4]; first compound 0.8 µM) was 0.984. For the same cell line, the relative viability ([4]; first compound 2.53 µM) was 1.08 and the relative viability ([4]; first compound 8 µM) was 0.659.
NCI-H2342 showed a relative viability ([2]; first compound 0.005 µM) of 0.626, a relative viability ([2]; first compound 0.01581 µM) of 0.482 and a relative viability ([2]; first compound 0.05 µM) of 0.556. The relative viability ([2]; first compound 0.1581 µM) was 0.356, the relative viability ([2]; first compound 0.5 µM) was 0.304 and the relative viability ([3]; first compound 0.05 µM) was 0.424. For the same cell line, the relative viability ([3]; first compound 0.1581 µM) was 0.383, the relative viability ([3]; first compound 0.5 µM) was 0.386 and the relative viability ([3]; first compound 1.581 µM) was 0.403. The relative viability ([3]; first compound 5 µM) was 0.463.
Work on HCC-366 yielded a relative viability ([1]; first compound 0.05 µM) of 1.3, a relative viability ([1]; first compound 0.1581 µM) of 1.04 and a relative viability ([1]; first compound 0.5 µM) of 1.07. For the same cell line, the relative viability ([1]; first compound 1.581 µM) was 1.09, the relative viability ([1]; first compound 5 µM) was 1.12 and the relative viability ([2]; first compound 0.005 µM) was 0.606. The relative viability ([2]; first compound 0.01581 µM) was 0.571, the relative viability ([2]; first compound 0.05 µM) was 0.484 and the relative viability ([2]; first compound 0.1581 µM) was 0.426. The relative viability ([2]; first compound 0.5 µM) was 0.336, the relative viability ([3]; first compound 0.05 µM) was 0.448 and the relative viability ([3]; first compound 0.1581 µM) was 0.328. The relative viability ([3]; first compound 0.5 µM) was 0.444, the relative viability ([3]; first compound 1.581 µM) was 0.355 and the relative viability ([3]; first compound 5 µM) was 0.358. It also gave a relative viability ([4]; first compound 0.08 µM) of 1.21, a relative viability ([4]; first compound 0.253 µM) of 1.32 and a relative viability ([4]; first compound 0.8 µM) of 1. For the same cell line, the relative viability ([4]; first compound 2.53 µM) was 1.09 and the relative viability ([4]; first compound 8 µM) was 1.13.
